From US11946028B2, “Fibrosis model on a chip” (The Trustees of the University of Pennsylvania, priority 2015, dated 2024)

System: human lung fibroblasts
Assay: Serum-induced fibrosis in biomimetic five-layer lung fibrosis model
Format: cell-based
Settings: 2 μM PP2 added to medium 24 hours after assembly, maintained for the study; 0.2% serum in the model; FIG. 20
Source text: The first and second channel slabs and the chamber slab of the model were formed using soft lithography techniques, in which the PDMS mixture was poured over the mold, and the slabs were allowed to cure. The microchannels were etched into each of the channel slabs, with the dimensions of 10 mm×1 mm×0.15 mm (length×width×height). The chamber was etched into the chamber slab, with the dimensions of 6 mm×3 mm×1 mm (length×width×height). See FIG. 9 for a picture of the five-layer model and FIG. 2A-2B for a schematic of the five-layer model.
Next, the cellular physiology of the cell-lined fluidic channels with the gel layer of the five-layer model was examined (FIG. 11). In this instance, the upper channel contained human lung endothelial cells cultured with commercially available medium from the supplying vendor of the cells. The lower channel contained small airway epithelial cells with similar specific medium, both from same vendor. The gel was created by adding collagen to physiological aqueous buffer at a concentration of 2 mg/ml and kept at 4° C. Human lung fibroblasts (100 K cells/ml) were added to the gel during the liquid phase. The side of the membranes facing the chamber slab were treated with sulfo-sanpah to promote collagen/ECM anchorage. The lower channel slab, lower membrane, and chamber slab were stacked. The gel was then pipetted into the chamber. […]

CC(C)(C)n1nc(-c2ccc(Cl)cc2)c2c(N)ncnc21 [PP2] was tested, and the “effect on serum-induced fibrosis” value was “reduced fibrosis”.
